According to ChEMBL document CHEMBL1201862, “PubChem BioAssay data set” (2004):
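Test compounds were applied to cells in 96-well plates for 48 hours at 5 doses. At the GI50, growth is halved.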 Active and inactive are the calls of the source. Cut-off read from the data, not from the text of the source: active = GI50 up to about 1.1 µM and inactive = higher.

Tests used:
Experiment in all cases: DTP human tumour cell line panel, 48 h
Malme-3M = tested on: Malme-3M
Hs-578T = tested on: Hs-578T
SNB-75 = tested on: SNB-75
ACHN = tested on: ACHN
U-251 = tested on: U-251
SNB-19 = tested on: SNB-19
HOP-92 = tested on: HOP-92
SW-620 = tested on: SW-620
EKVX = tested on: EKVX
CCRF-CEM = tested on: CCRF-CEM
OVCAR-5 = tested on: OVCAR-5
NCI-H460 = tested on: NCI-H460
NCI-H23 = tested on: NCI-H23
SF-268 = tested on: SF-268
RPMI-8226 = tested on: RPMI-8226
KM12 = tested on: KM12
HOP-62 = tested on: HOP-62
NCI/ADR-RES = tested on: NCI/ADR-RES
SK-MEL-2 = tested on: SK-MEL-2
DU-145 = tested on: DU-145
OVCAR-8 = tested on: OVCAR-8
HCC 2998 = tested on: HCC 2998
PC-3 = tested on: PC-3
M14 = tested on: M14
SF-295 = tested on: SF-295
MDA-MB-435 = tested on: MDA-MB-435
MOLT-4 = tested on: MOLT-4
NCI-H226 = tested on: NCI-H226
T47D = tested on: T47D
A549 = tested on: A549
UACC-257 = tested on: UACC-257
A498 = tested on: A498
MDA-MB-231 = tested on: MDA-MB-231
LOX IMVI = tested on: LOX IMVI
CAKI-1 = tested on: CAKI-1
SK-OV-3 = tested on: SK-OV-3
IGROV-1 = tested on: IGROV-1
SK-MEL-5 = tested on: SK-MEL-5
786-0 = tested on: 786-0
UACC-62 = tested on: UACC-62
MDA-N = tested on: MDA-N
NCI-H522 = tested on: NCI-H522
SR = tested on: SR
SK-MEL-28 = tested on: SK-MEL-28
COLO 205 = tested on: COLO 205
SN12C = tested on: SN12C
K562 = tested on: K562
MCF7 = tested on: MCF7
RXF 393 = tested on: RXF 393
OVCAR-3 = tested on: OVCAR-3
HL-60 = tested on: HL-60
HCT-15 = tested on: HCT-15
BT-549 = tested on: BT-549
SF-539 = tested on: SF-539
OVCAR-4 = tested on: OVCAR-4
UO-31 = tested on: UO-31
HCT-116 = tested on: HCT-116
HT-29 = tested on: HT-29
TK-10 = tested on: TK-10

CN(Cc1cc(Br)cc(Br)c1O)Cc1c(O)ccc2ccccc12
GI50 (Malme-3M): 21.7 µM (inactive) | GI50 (Hs-578T): 33.1 µM (inactive) | GI50 (SNB-75): 19.1 µM (inactive) | GI50 (ACHN): 22.7 µM (inactive) | GI50 (U-251): 19.3 µM (inactive) | GI50 (SNB-19): 17.2 µM (inactive) | GI50 (HOP-92): 19.1 µM (inactive) | GI50 (SW-620): 32 µM (inactive) | GI50 (EKVX): 16.9 µM (inactive) | GI50 (CCRF-CEM): 20.7 µM (inactive) | GI50 (OVCAR-5): 17.6 µM (inactive) | GI50 (NCI-H460): 19.1 µM (inactive) | GI50 (NCI-H23): 22.6 µM (inactive) | GI50 (SF-268): 24.9 µM (inactive) | GI50 (RPMI-8226): 22.6 µM (inactive) | GI50 (KM12): 17.2 µM (inactive) | GI50 (HOP-62): 18.7 µM (inactive) | GI50 (NCI/ADR-RES): 34.6 µM (inactive) | GI50 (SK-MEL-2): 17.8 µM (inactive) | GI50 (DU-145): 21.1 µM (inactive) | GI50 (OVCAR-8): 23.8 µM (inactive) | GI50 (HCC 2998): 17.1 µM (inactive) | GI50 (PC-3): 16.3 µM (inactive) | GI50 (M14): 17.2 µM (inactive) | GI50 (SF-295): 21.5 µM (inactive) | GI50 (MDA-MB-435): 18 µM (inactive) | GI50 (MOLT-4): 10.4 µM (inactive) | GI50 (NCI-H226): 20.6 µM (inactive) | GI50 (T47D): 21.9 µM (inactive) | GI50 (A549): 17.7 µM (inactive) | GI50 (UACC-257): 17.3 µM (inactive) | GI50 (A498): 20 µM (inactive) | GI50 (MDA-MB-231): 16.7 µM (inactive) | GI50 (LOX IMVI): 19.8 µM (inactive) | GI50 (CAKI-1): 16.1 µM (inactive) | GI50 (SK-OV-3): 19.6 µM (inactive) | GI50 (IGROV-1): 20.2 µM (inactive) | GI50 (SK-MEL-5): 17.4 µM (inactive) | GI50 (786-0): 16.7 µM (inactive) | GI50 (UACC-62): 19.7 µM (inactive) | GI50 (MDA-N): 16.3 µM (inactive) | GI50 (NCI-H522): 26.7 µM (inactive) | GI50 (SR): 20.6 µM (inactive) | GI50 (SK-MEL-28): 20 µM (inactive) | GI50 (COLO 205): 19.1 µM (inactive) | GI50 (SN12C): 14.9 µM (inactive) | GI50 (K562): 19.8 µM (inactive) | GI50 (MCF7): 26.4 µM (inactive) | GI50 (RXF 393): 19.4 µM (inactive) | GI50 (OVCAR-3): 15.2 µM (inactive) | GI50 (HL-60): 18.3 µM (inactive) | GI50 (HCT-15): 30.3 µM | GI50 (BT-549): 22.4 µM (inactive) | GI50 (SF-539): 16.1 µM (inactive) | GI50 (OVCAR-4): 16.5 µM (inactive) | GI50 (UO-31): 14.9 µM (inactive) | GI50 (HCT-116): 16.7 µM (inactive) | GI50 (HT-29): 14.5 µM (inactive) | GI50 (TK-10): 17.4 µM (inactive)

Nc1nc(Cl)c(N)c(NCC2(CO)CC(OCc3ccccc3)C2)n1 (configuration not stated)
GI50 (Malme-3M): > 100 µM (inactive) | GI50 (Hs-578T): > 100 µM (inactive) | GI50 (SNB-75): 70 µM (inactive) | GI50 (ACHN): > 100 µM (inactive) | GI50 (U-251): > 100 µM (inactive) | GI50 (SNB-19): > 100 µM (inactive) | GI50 (HOP-92): > 100 µM (inactive) | GI50 (SW-620): > 100 µM (inactive) | GI50 (EKVX): > 100 µM (inactive) | GI50 (CCRF-CEM): > 100 µM (inactive) | GI50 (OVCAR-5): > 100 µM (inactive) | GI50 (NCI-H460): > 100 µM (inactive) | GI50 (NCI-H23): 4.17 µM (inactive) | GI50 (SF-268): > 100 µM (inactive) | GI50 (RPMI-8226): > 100 µM (inactive) | GI50 (KM12): > 100 µM (inactive) | GI50 (HOP-62): > 100 µM (inactive) | GI50 (NCI/ADR-RES): 48 µM (inactive) | GI50 (SK-MEL-2): > 100 µM (inactive) | GI50 (DU-145): > 100 µM (inactive) | GI50 (OVCAR-8): > 100 µM (inactive) | GI50 (HCC 2998): 82 µM (inactive) | GI50 (PC-3): > 100 µM (inactive) | GI50 (M14): > 100 µM (inactive) | GI50 (SF-295): > 100 µM (inactive) | GI50 (MDA-MB-435): > 100 µM (inactive) | GI50 (MOLT-4): > 100 µM (inactive) | GI50 (NCI-H226): > 100 µM (inactive) | GI50 (T47D): 23.7 µM (inactive) | GI50 (A549): > 100 µM (inactive) | GI50 (UACC-257): 48.4 µM (inactive) | GI50 (A498): 76.4 µM (inactive) | GI50 (MDA-MB-231): > 100 µM (inactive) | GI50 (LOX IMVI): 9.35 µM (inactive) | GI50 (CAKI-1): > 100 µM (inactive) | GI50 (SK-OV-3): > 100 µM (inactive) | GI50 (IGROV-1): > 100 µM (inactive) | GI50 (SK-MEL-5): 20.4 µM (inactive) | GI50 (786-0): > 100 µM (inactive) | GI50 (UACC-62): > 100 µM (inactive) | GI50 (MDA-N): > 100 µM (inactive) | GI50 (NCI-H522): > 100 µM (inactive) | GI50 (SR): 6.5 µM (inactive) | GI50 (SK-MEL-28): > 100 µM (inactive) | GI50 (COLO 205): > 100 µM (inactive) | GI50 (SN12C): > 100 µM (inactive) | GI50 (K562): 74.6 µM (inactive) | GI50 (MCF7): 11.3 µM (inactive) | GI50 (RXF 393): > 100 µM (inactive) | GI50 (OVCAR-3): > 100 µM (inactive) | GI50 (HL-60): > 100 µM (inactive) | GI50 (HCT-15): > 100 µM | GI50 (BT-549): > 100 µM (inactive) | GI50 (SF-539): > 100 µM (inactive) | GI50 (OVCAR-4): > 100 µM (inactive) | GI50 (UO-31): > 100 µM (inactive) | GI50 (HCT-116): 44.8 µM (inactive) | GI50 (HT-29): > 100 µM (inactive) | GI50 (TK-10): 44 µM (inactive)

Cc1cc(C)nc(NS(=O)(=O)c2ccc(Nc3c4ccccc4nc4ccc(C(=O)Nc5ccc(S(N)(=O)=O)cc5)cc34)cc2)n1
GI50 (Malme-3M): > 100 µM (inactive) | GI50 (Hs-578T): > 100 µM (inactive) | GI50 (SNB-75): > 100 µM (inactive) | GI50 (ACHN): > 100 µM (inactive) | GI50 (U-251): 66.4 µM (inactive) | GI50 (SNB-19): > 100 µM (inactive) | GI50 (HOP-92): > 100 µM (inactive) | GI50 (SW-620): > 100 µM (inactive) | GI50 (EKVX): > 100 µM (inactive) | GI50 (CCRF-CEM): 63.7 µM (inactive) | GI50 (OVCAR-5): > 100 µM (inactive) | GI50 (NCI-H460): > 100 µM (inactive) | GI50 (NCI-H23): > 100 µM (inactive) | GI50 (SF-268): > 100 µM (inactive) | GI50 (RPMI-8226): 77.4 µM (inactive) | GI50 (KM12): > 100 µM (inactive) | GI50 (HOP-62): > 100 µM (inactive) | GI50 (NCI/ADR-RES): 69.3 µM (inactive) | GI50 (SK-MEL-2): > 100 µM (inactive) | GI50 (DU-145): > 100 µM (inactive) | GI50 (OVCAR-8): 43 µM (inactive) | GI50 (HCC 2998): > 100 µM (inactive) | GI50 (PC-3): > 100 µM (inactive) | GI50 (M14): > 100 µM (inactive) | GI50 (SF-295): > 100 µM (inactive) | GI50 (MDA-MB-435): > 100 µM (inactive) | GI50 (MOLT-4): > 100 µM (inactive) | GI50 (NCI-H226): > 100 µM (inactive) | GI50 (T47D): 78 µM (inactive) | GI50 (A549): > 100 µM (inactive) | GI50 (UACC-257): > 100 µM (inactive) | GI50 (A498): > 100 µM (inactive) | GI50 (MDA-MB-231): 20 µM (inactive) | GI50 (LOX IMVI): 50.6 µM (inactive) | GI50 (CAKI-1): > 100 µM (inactive) | GI50 (SK-OV-3): > 100 µM (inactive) | GI50 (IGROV-1): > 100 µM (inactive) | GI50 (SK-MEL-5): 72.6 µM (inactive) | GI50 (786-0): > 100 µM (inactive) | GI50 (UACC-62): > 100 µM (inactive) | GI50 (MDA-N): > 100 µM (inactive) | GI50 (NCI-H522): > 100 µM (inactive) | GI50 (SR): > 100 µM (inactive) | GI50 (SK-MEL-28): > 100 µM (inactive) | GI50 (COLO 205): > 100 µM (inactive) | GI50 (SN12C): > 100 µM (inactive) | GI50 (K562): 66.4 µM (inactive) | GI50 (MCF7): > 100 µM (inactive) | GI50 (RXF 393): > 100 µM (inactive) | GI50 (OVCAR-3): > 100 µM (inactive) | GI50 (HL-60): > 100 µM (inactive) | GI50 (HCT-15): > 100 µM | GI50 (BT-549): 24.9 µM (inactive) | GI50 (SF-539): > 100 µM (inactive) | GI50 (OVCAR-4): > 100 µM (inactive) | GI50 (UO-31): > 100 µM (inactive) | GI50 (HCT-116): > 100 µM (inactive) | GI50 (HT-29): > 100 µM (inactive) | GI50 (TK-10): > 100 µM (inactive)
